This passage reports inhibition results from patent US20180208605A1, “Substituted Aza Compounds as IRAK-4 Inhibitors” (AURIGENE DISCOVERY TECHNOLOGIES LIMITED, priority 2015, published 2018).

Each structure is given as a SMILES string. Where a name gives a salt, the structure may show the parent alone.

The assay deals with T1, recombinant IRAK-4 kinase (Homo sapiens, UniProt Q9NWZ3).
T1 construct: purchased Millipore, USA
T1 sequence (Q9NWZ3 1-460): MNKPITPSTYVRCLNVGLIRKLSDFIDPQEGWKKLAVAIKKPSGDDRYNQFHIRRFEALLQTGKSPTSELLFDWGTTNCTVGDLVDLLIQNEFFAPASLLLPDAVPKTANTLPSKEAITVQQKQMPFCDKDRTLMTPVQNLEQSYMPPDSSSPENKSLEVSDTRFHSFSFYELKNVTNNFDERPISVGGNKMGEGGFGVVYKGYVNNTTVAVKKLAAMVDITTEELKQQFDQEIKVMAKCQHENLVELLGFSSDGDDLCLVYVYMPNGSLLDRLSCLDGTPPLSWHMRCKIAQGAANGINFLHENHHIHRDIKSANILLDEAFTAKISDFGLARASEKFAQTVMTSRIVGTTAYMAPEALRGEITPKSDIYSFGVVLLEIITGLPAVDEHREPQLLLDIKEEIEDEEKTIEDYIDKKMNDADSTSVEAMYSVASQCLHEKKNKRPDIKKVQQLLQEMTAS
Description: IRAK-4 Biochemical Assay (TR-FRET, percent inhibition). To be noted: TR-FRET, 20 μM ATP, 100 nM Biotin Histone H3; for inhibition at 0.1 µM: read-out: % inhibition of IRAK-4 @0.1 μM, compound at 0.1 μM; for inhibition at 1 µM: read-out: % inhibition of IRAK-4 @ 1 μM, compound at 1 μM. The procedure: Compounds were tested for their potential to inhibit IRAK-4 enzyme in a TR-FRET assay using recombinant IRAK-4 kinase from Millipore, USA. The assay buffer was 50 mM Tris-HCl pH 7.5, 20 mM MgCl2, 1 mM EGTA, 2 mM DTT, 3 mM MnCl2 and 0.01% Tween 20.5 ng of IRAK-4 kinase was used for the assay. After pre-incubation of enzyme with test compound for 30 minutes at room temperature, a substrate mixture containing 100 nM Biotin Histone H3 (Millipore, USA) and 20 μM ATP (Sigma, USA) was added and the reaction was incubated for 30 min. Post incubation, the reaction was stopped by the addition of stop mix containing 40 mM EDTA, 1 nM of Europium-Anti-Phospho-Histone H3 (Ser10) antibody (Perkin Elmer, USA) and 20 nM SureLight Allophycocyanin-Streptavidin (Perkin Elmer, USA). The fluorescence emission at 615 nm and 665 nm were measured at an excitation of 340 nm and the percent inhibition was estimated from the ratio of the fluorescence intensities [(F665/F615)×10000].

`O=C(Nc1cc2sc(N3CCOCC3)nc2nc1C(F)(F)F)c1cccc(N2CCC(O)C2)n1` (stereo not shown) [Example 44, 6-(3-hydroxypyrrolidin-1-yl)-N-(2-morpholino-5-(trifluoromethyl)thiazolo[4,5-b]pyridin-6-yl)picolinamide]: the inhibition at 0.1 µM worked out at 90% and the inhibition at 1 µM is 96%.

For the compound `O=C(Nc1cc2sc(N3CCOCC3)nc2nc1N1CCC[C@@H](O)C1)c1cccc(N2CCCCCC2)n1` [Example 39, (R)-6-(azepan-1-yl)-N-(5-(3-hydroxypiperidin-1-yl)-2-morpholinothiazolo[4,5-b]pyridin-6-yl)picolinamide], the inhibition at 0.1 µM was found to be 83% and the inhibition at 1 µM turned out to be 98%.

Consider `O=C(Nc1cc2oc(N3CCOCC3)nc2nc1C1CC1)c1cnn2cccnc12` [Example 107, N-(5-cyclopropyl-2-morpholinooxazolo[4,5-b]pyridin-6-yl)pyrazolo[1,5-a]pyrimidine-3-carboxamide hydrochloride], for which the inhibition at 0.1 µM is 57% and the inhibition at 1 µM was found to be 92%.

Consider `Cc1cc(-c2nc(C(=O)Nc3cc4oc(N5CCOCC5)nc4nc3N3CC[C@@H](OC(=O)CN)C3)co2)ccn1` [Example 97, (R)-1-(6-(2-(2-methylpyridin-4-yl)oxazole-4-carboxamido)-2-morpholinooxazolo[4,5-b]pyridin-5-yl)pyrrolidin-3-yl glycinate], for which the inhibition at 0.1 µM is 87% and the inhibition at 1 µM came to 99%.

Consider `O=C(Nc1cc2sc(N3CCOCC3)nc2nc1N1CCCCC1)c1cccc(NCC2CCOCC2)n1` [Example 37, N-(2-morpholino-5-(piperidin-1-yl)thiazolo[4,5-b]pyridin-6-yl)-6-(((tetrahydro-2H-pyran-4-yl)methyl)amino)picolinamide], for which the inhibition at 0.1 µM stood at 75% and the inhibition at 1 µM is 95%.

As to `N[C@H]1CCCCC1Nc1ccn2ncc(C(=O)Nc3cc4sc(N5CCOCC5)nc4nc3C3CC3)c2n1` (stereo partly shown) [Example 98, 2,2,2-trifluoroacetate], the inhibition at 0.1 µM came to 94% and the inhibition at 1 µM was 97%.

`Nc1ccc(-c2cccc(C(=O)Nc3cc4oc(N5CCOCC5)nc4nc3N3CCOCC3)n2)cn1` [Example 92, 6′-amino-N-(2,5-dimorpholinooxazolo[4,5-b]pyridin-6-yl)-[2,3′-bipyridine]-6-carboxamide hydrochloride]: the inhibition at 0.1 µM amounted to 78% and the inhibition at 1 µM was determined as 96%.

Regarding `Nc1cccc(-c2nc(C(=O)Nc3cc4sc(N5CCOCC5)nc4nc3N3CCCCC3)co2)n1` [Example 11, 2-(6-aminopyridin-2-yl)-N-(2-morpholino-5-(piperidin-1-yl)thiazolo[4,5-b]pyridin-6-yl)oxazole-4-carboxamide hydrochloride], the inhibition at 0.1 µM is 99% and the inhibition at 1 µM stood at 98%.

Take `O=C(Nc1cc2sc(N3CCOCC3)nc2nc1N1CCCCC1)c1cccc(N2CCCC(O)C2)n1` (stereo not shown) [Example 55, 6-(3-hydroxypiperidin-1-yl)-N-(2-morpholino-5-(piperidin-1-yl)thiazolo[4,5-b]pyridin-6-yl)picolinamide]: the inhibition at 0.1 µM is 94% and the inhibition at 1 µM was determined as 98%.

Regarding `O=C(Nc1cc2sc(N3CCOCC3)nc2nc1N1CCCCC1)c1cccc(N2CCCC(CO)C2)n1` (stereo not shown) [Example 78, 6-(3-(hydroxymethyl)piperidin-1-yl)-N-(2-morpholino-5-(piperidin-1-yl)thiazolo[4,5-b]pyridin-6-yl)picolinamide], the inhibition at 0.1 µM stood at 99% and the inhibition at 1 µM was 96%.

In the case of `NCC(=O)O[C@H]1CCN(c2cccc(C(=O)Nc3cc4sc(N5CCOCC5)nc4nc3N3CCCCC3)n2)C1` [Example 36, (S)-1-(6-((2-morpholino-5-(piperidin-1-yl)thiazolo[4,5-b]pyridin-6-yl)carbamoyl)pyridin-2-yl)pyrrolidin-3-ylglycinate 2,2,2-trifluoroacetate], the inhibition at 0.1 µM stood at 94% and the inhibition at 1 µM came out at 99%.
